EC50 data for 23 molecules are collected here from patent US20240360081A1, “SULFONAMIDE OREXIN RECEPTOR AGONISTS AND USES THEREOF” (Jazz Pharmaceuticals Ireland Limited, priority 2021, published 2024).

In general, EC50 refers to the concentration needed to bring the measured effect to its halfway point.

For this test, the target named is T1, human recombinant OX2 (hOX2) receptor expressed in CHO cells (Homo sapiens, UniProt O43614).
T1 construct: host or cells: CHO cells (hOX2-CHO)
T1 sequence (O43614 1-444): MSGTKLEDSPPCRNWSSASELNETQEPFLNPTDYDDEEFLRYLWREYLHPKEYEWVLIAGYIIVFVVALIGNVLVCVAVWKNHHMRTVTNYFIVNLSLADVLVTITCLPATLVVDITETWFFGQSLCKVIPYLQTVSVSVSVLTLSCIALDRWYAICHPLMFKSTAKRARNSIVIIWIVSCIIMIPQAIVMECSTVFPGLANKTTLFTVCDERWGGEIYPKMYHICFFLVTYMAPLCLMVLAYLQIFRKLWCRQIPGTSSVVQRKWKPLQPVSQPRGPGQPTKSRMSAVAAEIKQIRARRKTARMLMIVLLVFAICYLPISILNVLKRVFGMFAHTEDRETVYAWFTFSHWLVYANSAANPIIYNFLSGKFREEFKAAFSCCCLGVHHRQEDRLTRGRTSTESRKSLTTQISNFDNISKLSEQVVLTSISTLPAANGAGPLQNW
Nature of the test: IP-1 accumulation assay (IP-One HTRF) in hOX2-CHO cells. Type of test: cell-based. To be noted: 60 min at 37° C., 11 points CRC, response as % of maximal OX-A response. In outline:
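CHO cells expressing hOX2, 20,000 cells/well in HBSS with 20 mM HEPES pH 7.4, 50 mM LiCl, 0.1% BSA; 11-point compound series, 0.5% DMSO final, 60 min at 37 °C. IP-1 by HTRF (665/615 ratio) after 60 min at room temperature, as % of maximal OX-A response; EC50 by four-parameter logistic fit, mean of ≥2 experiments in duplicate.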
In general terms: Time-resolved FRET reads energy transfer from a long-lived donor to a nearby acceptor.
As to `Cc1cc(C(CNS(=O)(=O)CF)CO[C@H]2CC[C@@H](c3cccc(F)c3)CC2)c(=O)n(C)c1` (single isomer, unassigned; isomer 2) [Example 5o, (S or R) N-[2-(1,5-dimethyl-2-oxo-1,2-dihydropyridin-3-yl)-3-{[(CIS)-4-(3-fluorophenyl)cyclohexyl]oxy}propyl]-1-fluoromethanesulfonamide—Isomer 2], the EC50 is 100 to 1000 nM.

In the case of `CCc1cccn(C(CNS(C)(=O)=O)CO[C@H]2CC[C@@H](c3ccccc3)CC2)c1=O` (single isomer, unassigned; isomer 2) [Example 2b, (S or R) N-[2-(3-ethyl-2-oxo-1,2-dihydropyridin-1-yl)-3-{[(CIS)-4-phenylcyclohexyl]oxy}propyl]methanesulfonamide-Isomer 2], the EC50 is 100 to 1000 nM.

In the case of `Cc1cc(C)c(=O)n(C(CNS(=O)(=O)CC(F)F)CO[C@H]2CC[C@@H](c3cccc(F)c3)CC2)c1` (stereo partly drawn) [Example 2ao, N-[2-(3,5-dimethyl-2-oxo-1,2-dihydropyridin-1-yl)-3-{[(CIS)-4-(3-fluorophenyl)cyclohexyl]oxy}propyl]-2,2-difluoroethane-1-sulfonamide], the EC50 is 100 to 1000 nM.

As for `Cc1cc(C(CNS(C)(=O)=O)CO[C@H]2CC[C@@H](c3cccc(F)c3)CC2)c(=O)n(C)c1` (single isomer, unassigned; isomer 2) [Example 5d, (S or R) N-[2-(1,5-dimethyl-2-oxo-1,2-dihydropyridin-3-yl)-3-{[(CIS)-4-(3-fluorophenyl)cyclohexyl]oxy}propyl]methanesulfonamide—Isomer 2], the concentration for a half-maximal effect (EC50) lay in the range of 100 to 1000 nM.

As for `Cc1cc(C(CNS(=O)(=O)N(C)C)CO[C@H]2CC[C@@H](c3ccccc3)CC2)n2nccc2c1` (stereo partly drawn) [Example 5g, dimethyl[(2-{5-methylpyrazolo[1,5-a]pyridin-7-yl}-3-{[(CIS)-4-phenylcyclohexyl]oxy}propyl)sulfamoyl]amine], the EC50 fell in the range of 100 to 1000 nM.

Consider `Cc1cc(C(CNS(=O)(=O)N(C)C)CO[C@H]2CC[C@@H](c3cccc(F)c3)CC2)c(=O)n(C(F)F)c1` (single isomer, unassigned; isomer 1) [Example 5ab, (R or S) 1-(difluoromethyl)-3-[1-[(dimethylsulfamoyl)amino]-3-{[(CIS)-4-(3-fluorophenyl)cyclohexyl]oxy}propan-2-yl]-5-methyl-1,2-dihydropyridin-2-one—Isomer 1], for which the concentration for a half-maximal effect (EC50) was below 100 nM.

As for `Cc1ccn(C(CNS(C)(=O)=O)CO[C@H]2CC[C@@H](c3ccccc3)CC2)n1` (single isomer, unassigned; isomer 1) [Example 2ab, (R or S) N-[2-(3-methyl-1H-pyrazol-1-yl)-3-{[(CIS)-4-phenylcyclohexyl]oxy}propyl]methanesulfonamide-Isomer 1], the EC50 is above 10000 nM.

In the case of `Cc1cc(C)c(=O)n(C(CNS(=O)(=O)C2CC2)CO[C@H]2CC[C@@H](c3cccc(F)c3)CC2)c1` (stereo partly drawn) [Example 2al, N-[2-(3,5-dimethyl-2-oxo-1,2-dihydropyridin-1-yl)-3-{[(CIS)-4-(3-fluorophenyl)cyclohexyl]oxy}propyl]cyclopropanesulfonamide], the concentration giving a half-maximal response (EC50) was below 100 nM.

In the case of `Cc1cc(C)c(=O)n(C(CNS(C)(=O)=O)COC2CCC3(CCOC3)CC2)c1` (centres unmarked) [Example 2bd, N-[2-(3,5-dimethyl-2-oxo-1,2-dihydropyridin-1-yl)-3-{2-oxaspiro[4.5]decan-8-yloxy}propyl]methanesulfonamide], the 50% effective concentration (EC50) was above 10000 nM.

For `CS(=O)(=O)NCC(CO[C@H]1CC[C@@H](c2ccccc2)CC1)n1ccccc1=O` (single isomer, unassigned; isomer 1) [Example 1a, (R or S) N-[2-(2-oxo-1,2-dihydropyridin-1-yl)-3-{[(CIS)-4-phenylcyclo-hexyl]oxy}propyl] methane-sulfonamide- Isomer 1], the EC50 was in the range of 1000 to 10000 nM.

On to `CS(=O)(=O)NCC(CO[C@H]1CC[C@@H](c2ccccc2)CC1)n1cccc(C(F)(F)F)c1=O` (stereo partly drawn) [Example 2c, N-{2-[2-oxo-3-(trifluoromethyl)-1,2-dihydropyridin-1-yl]-3-{[(CIS)-4-phenylcyclohexyl]oxy}propyl}methanesulfonamide], for which the concentration giving a half-maximal response (EC50) is 1000 to 10000 nM.

In the case of `Cc1cc(C)c(=O)n(C(CNS(C)(=O)=O)COC2CCN(c3ncc(F)cn3)CC2)c1` (single isomer, unassigned; isomer 2) [Example 2ba, (S or R) N-[2-(3,5-dimethyl-2-oxo-1,2-dihydropyridin-1-yl)-3-{[1-(5-fluoropyrimidin-2-yl)piperidin-4-yl]oxy}propyl]methanesulfonamide-Isomer 2], the 50% effective concentration (EC50) was above 10000 nM.

For `CS(=O)(=O)NCC(CO[C@H]1CC[C@@H](c2ccccc2)CC1)n1cccc(F)c1=O` (single isomer, unassigned; isomer 2) [Example 2h, (S or R) N-[2-(3-fluoro-2-oxo-1,2-dihydropyridin-1-yl)-3-{[(CIS)-4-phenylcyclohexyl]oxy}propyl]methanesulfonamide-Isomer 2], the EC50 is above 10000 nM.

Take `CS(=O)(=O)NCC(CO[C@H]1CC[C@@H](c2ccccc2)CC1)c1cccn2cnnc12` (stereo partly drawn) [Example 5f, N-(3-{[(CIS)-4-phenylcyclohexyl]oxy}-2-{[1,2,4]triazolo[4,3-a]pyridin-8-yl}propyl)methanesulfonamide]: the EC50 fell in the range of 100 to 1000 nM.

With `CS(=O)(=O)NCC(CO[C@H]1CC[C@@H](c2ccccc2)CC1)n1cccc(F)c1=O` (stereo partly drawn) [Example 2f, N-[2-(3-fluoro-2-oxo-1,2-dihydropyridin-1-yl)-3-{[(CIS)-4-phenylcyclohexyl]oxy}propyl]methanesulfonamide], the EC50 is 1000 to 10000 nM.

Turning to `Cc1cccn(C(CNS(C)(=O)=O)CO[C@H]2CC[C@@H](c3ccccc3)CC2)c1=O` (single isomer, unassigned; isomer 1) [Example 1d, (R or S) N-[2-(3-methyl-2-oxo-1,2-dihydropyridin-1-yl)-3-{[(CIS)-4-phenylcyclo-hexyl]oxy}propyl] methane-sulfonamide- Isomer 1], the EC50 was above 10000 nM.

With `Cc1cc(C(CNS(C)(=O)=O)CO[C@H]2CC[C@@H](c3cccc(F)c3)CC2)c(=O)n(CC#N)c1` (stereo partly drawn) [Example 5e, N-{2-[1-(cyanomethyl)-5-methyl-2-oxo-1,2-dihydropyridin-3-yl]-3-{[(CIS)-4-(3-fluorophenyl)cyclohexyl]oxy}propyl}methanesulfonamide], the concentration for a half-maximal effect (EC50) is 100 to 1000 nM.

Consider `Cn1cccc(C(CNS(C)(=O)=O)CO[C@H]2CC[C@@H](c3ccccc3)CC2)c1=O` (single isomer, unassigned; isomer 2) [Example 4b, (S or R) N-[2-(1-methyl-2-oxo-1,2-dihydropyridin-3-yl)-3-{[(CIS)-4-phenylcyclohexyl]oxy}propyl]methanesulfonamide—Isomer 2], for which the half-maximal effective concentration (EC50) is above 10000 nM.

Regarding `Cc1cc(C)c(=O)n(C(CNS(C)(=O)=O)CO[C@H]2CC[C@@H](c3cccc(F)c3)CC2)c1` (single isomer, unassigned; isomer 1) [Example 2af, (R or S) N-[2-(3,5-dimethyl-2-oxo-1,2-dihydropyridin-1-yl)-3-{[(CIS)-4-(3-fluorophenyl)cyclohexyl]oxy}propyl]methanesulfonamide-Isomer 1], the EC50 was below 100 nM.

Take `Cc1cc(C(CNS(C)(=O)=O)CO[C@H]2CC[C@@H](c3cccc(F)c3)CC2)c(=O)n(C(F)F)c1` (single isomer, unassigned; isomer 2) [Example 5z, (S or R) N-[2-[1-(difluoromethyl)-5-methyl-2-oxo-1,2-dihydropyridin-3-yl]-3-{[(CIS)-4-(3-fluorophenyl)cyclohexyl]oxy}propyl]methanesulfonamide—Isomer 2]: the EC50 was 1000 to 10000 nM.

Turning to `CS(=O)(=O)NCC(CO[C@H]1CC[C@@H](c2ccccc2)CC1)n1c(=O)ccc2ccccc21` (stereo partly drawn) [Example 2ak, N-[2-(2-oxo-1,2-dihydroquinolin-1-yl)-3-{[(CIS)-4-phenylcyclohexyl]oxy}propyl]methanesulfonamide], the EC50 is above 10000 nM.

As for `Cc1cc(C)c(=O)n(C(CNS(=O)(=O)CF)CO[C@H]2CC[C@@H](c3cccc(F)c3)CC2)c1` (single isomer, unassigned; isomer 1) [Example 2au, (R or S) N-[2-(3,5-dimethyl-2-oxo-1,2-dihydropyridin-1-yl)-3-{[(CIS)-4-(3-fluorophenyl)cyclohexyl]oxy}propyl]-1-fluoromethanesulfonamide-Isomer 1], the EC50 was below 100 nM.

Regarding `Cc1ccn(C(CNS(C)(=O)=O)CO[C@H]2CC[C@@H](c3ccccc3)CC2)c(=O)c1C` (stereo partly drawn) [Example 2m, N-[2-(3,4-dimethyl-2-oxo-1,2-dihydropyridin-1-yl)-3-{[(CIS)-4-phenylcyclohexyl]oxy}propyl]methanesulfonamide], the concentration for a half-maximal effect (EC50) is 100 to 1000 nM.
